# Assay results from patent EP4782453A1 (Beyang Therapeutics Co., Ltd., priority 2023, dated 2025).
# Like-named read-outs stand apart in the source and are kept apart here.
# Molecular target: T1, Menin-MLL (Homo sapiens, UniProt O00255)
# T1 construct: His-Menin (M1-L615 end); purchased BIORTUS BP9210
# T1 sequence (O00255 1-615 isoform O00255-1): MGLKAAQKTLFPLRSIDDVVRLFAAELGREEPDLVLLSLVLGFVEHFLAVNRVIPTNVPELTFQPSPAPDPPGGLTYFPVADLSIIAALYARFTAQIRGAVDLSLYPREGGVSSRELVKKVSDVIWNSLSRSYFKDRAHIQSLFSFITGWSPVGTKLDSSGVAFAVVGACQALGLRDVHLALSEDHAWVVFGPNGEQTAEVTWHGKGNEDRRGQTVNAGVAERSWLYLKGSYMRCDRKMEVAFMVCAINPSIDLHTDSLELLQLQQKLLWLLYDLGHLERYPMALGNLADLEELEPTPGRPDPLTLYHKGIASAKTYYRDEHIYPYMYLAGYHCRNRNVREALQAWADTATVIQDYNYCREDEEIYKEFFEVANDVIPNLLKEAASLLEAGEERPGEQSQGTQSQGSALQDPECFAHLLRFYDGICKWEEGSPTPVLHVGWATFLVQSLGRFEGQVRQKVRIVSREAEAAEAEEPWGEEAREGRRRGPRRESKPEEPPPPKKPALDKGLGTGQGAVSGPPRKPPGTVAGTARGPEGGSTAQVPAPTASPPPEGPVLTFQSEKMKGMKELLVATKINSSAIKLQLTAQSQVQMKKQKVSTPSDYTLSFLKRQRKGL
# Experiment: Inhibitory activity against Menin-MLL binding (fluorescence polarization)
# Conditions: 150 nM His-Menin, 15 nM FITC-MLL, 25°C for 60 min
# Method in brief: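 Fluorescence polarization competition: compound and 150 nM His-tagged menin (residues M1-L615) sit 15 min at 25 °C in pH 7.5 HEPES buffer with NaCl, DTT and BSA; 15 nM FITC-labelled MLL peptide then binds for 60 min. IC50 fitted sigmoidally from mP values, duplicate wells.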
# [1] = fluorescence polarization, read-out: Menin-MLL IC50
IC50 [1] [nM],Compound,"IC50 (Menin-MLL IC50, fluorescence polarization) [nM]"
23,"Cc1nc(F)c2c(-c3ccc(F)cc3C(=O)N3CCOC[C@H]3C)cc(C3CN([C@@H](CN4CCN(C)CC4)C(C)C)C3)cn12 [Example 368-1, (3R)-4-[5-fluoro-2-(1-fluoro-3-methyl-6-{1-[(2R)-3-methyl-1-(4-methylpiperazin-1-yl)butan-2-yl]azacyclobutan-3-yl}imidazo[1,5-a]pyridin-8-yl)benzoyl]-3-methylmorpholine]",
32,"Cc1nc(F)c2c(-c3ccc(F)cc3C(=O)N3CCOC[C@H]3C)cc(C3CN(C(CC[C@@H]4COCCN4C)C(C)C)C3)cn12 (stereo partly drawn) [Example 372, (3R)-4-{5-fluoro-2-[1-fluoro-3-methyl-6-(1-{4-methyl-1-[(3R)-4-methylmorpholin-3-yl]pentan-3-yl}azacyclobutan-3-yl)imidazo[1,5-a]pyridin-8-yl]benzoyl}-3-methylmorpholine]",
26,"Cc1nc(F)c2c(-c3ccc(F)cc3C(=O)N3CCOC[C@H]3C)cc(C3CN(C(CC[C@H]4COCCN4C)C(C)C)C3)cn12 (stereo partly drawn) [Example 374, (3R)-4-{5-fluoro-2-[1-fluoro-3-methyl-6-(1-{4-methyl-1-[(3S)-4-methylmorpholin-3-yl]pentan-3-yl}azacyclobutan-3-yl)imidazo[1,5-a]pyridin-8-yl]benzoyl}-3-methylmorpholine]",
3.9,"CCN(C(=O)c1cc(F)ccc1-c1cc(C2CN([C@H](CCCN3CCOCC3)C(C)C)C2)cn2c(C)ncc12)C(C)C [Example 375, N-ethyl-5-fluoro-2-(3-methyl-6-{1-[(3R)-2-methyl-6-(morpholin-4-yl)hexan-3-yl]azacyclobutan-3-yl}imidazo[1,5-a]pyridin-8-yl)-N-(isopropyl)benzamide]",
3.1,CCN(C(=O)c1cc(F)ccc1-c1cc(C2CN([C@H](CCCN3CCN(C4CC4)CC3)C(C)C)C2)cn2c(C)ncc12)C(C)C [Example 376],
17,CC(=O)N1CC2CCC(C1)N2CCC[C@H](C(C)C)N1CC(c2cc(-c3ccc(F)cc3C(=O)N3CCOC[C@H]3C)c3cnn(C)c3c2)C1 [Example 383],
20,CC(=O)N1CC2CC(C1)N2CCC[C@H](C(C)C)N1CC(c2cc(-c3ccc(F)cc3C(=O)N3CCOC[C@H]3C)c3cnn(C)c3c2)C1 [Example 386],
2.1,CCN(C(=O)c1cc(F)ccc1-c1cc(C2CN([C@H](CCCN3CC4(COC4)C3)C(C)C)C2)cn2c(C)ncc12)C(C)C [Example 388],
2,CCN(C(=O)c1cc(F)ccc1-c1cc(C2CN([C@H](CCCN3CC4CC(C3)N4C)C(C)C)C2)cn2c(C)ncc12)C(C)C [Example 392],
188,"CCN1CCN(CCC[C@@H](C(C)C)N2CC(c3cc(-c4ccc(F)cc4C(=O)N(CC)C(C)C)c4cnn(C)c4c3)C2)CC1 [Example 394-1, N-ethyl-2-(6-{1-[(3S)-6-(4-ethylpiperazin-1-yl)-2-methylhexan-3-yl]azacyclobutan-3-yl}-1-methyl-1H-indazol-4-yl)-5-fluoro-N-(isopropyl)benzamide]",
3.2,"CCN1CCN(CCC[C@H](C(C)C)N2CC(c3cc(-c4ccc(F)cc4C(=O)N(CC)C(C)C)c4cnn(C)c4c3)C2)CC1 [Example 394-2, N-ethyl-2-(6-{1-[(3R)-6-(4-ethylpiperazin-1-yl)-2-methylhexan-3-yl]azacyclobutan-3-yl}-1-methyl-1H-indazol-4-yl)-5-fluoro-N-(isopropyl)benzamide]",
4.2,CCN(C(=O)c1cc(F)ccc1-c1cc(C2CN([C@H](CCCN3CCN(S(C)(=O)=O)CC3)C(C)C)C2)cn2c(C)ncc12)C(C)C [Example 397],
110,"CCN(C(=O)c1cc(F)ccc1-c1cc(C2CN([C@@H](CCCN3CCC(OC)CC3)C(C)C)C2)cc2c1cnn2C)C(C)C [Example 399-1, N-ethyl-5-fluoro-2-(6-{1-[(3S)-6-(4-methoxypiperidin-1-yl)-2-methylhexan-3-yl]azacyclobutan-3-yl}-1-methyl-1H-indazol-4-yl)-N-(isopropyl)benzamide]",
220,CCN(C(=O)c1cc(F)ccc1-c1cc(C2CN([C@@H](CCCN3CCN(CCO)CC3)C(C)C)C2)cc2c1cnn2C)C(C)C [Example 400-1],
130,CCN(C(=O)c1cc(F)ccc1-c1cc(C2CN([C@@H](CCCN3CCC(OCCO)CC3)C(C)C)C2)cc2c1cnn2C)C(C)C [Example 401-1],
110,"CCN(C(=O)c1cc(F)ccc1-c1cc(C2CN([C@@H](CN3CCN(C)CC3)C(C)C)C2)cc2c1cnn2C)C(C)C [Example 402-1, N-ethyl-5-fluoro-2-(1-methyl-6-{1-[(2R)-3-methyl-1-(4-methylpiperazin-1-yl)butan-2-yl]azacyclobutan-3-yl}-1H-indazol-4-yl)-N-(isopropyl)benzamide]",
33,CCN(C(=O)c1cc(F)ccc1-c1cc(C2CN([C@H](CCCN3CCN(C(C)=O)CC3)C(C)C)C2)cc2c1cnn2C)C(C)C [Example 407],
11.8,"CCN(C(=O)c1cc(F)ccc1-c1cc(C2CN(C(COC)C(C)C)C2)cn2c(C)ncc12)C(C)C (centres unmarked) [Example 414, N-ethyl-5-fluoro-2-{6-[1-(1-methoxy-3-methylbutan-2-yl)azacyclobutan-3-yl]-3-methylimidazo[1,5-a]pyridin-8-yl}-N-(isopropyl)benzamide]",
,"CCN(C(=O)c1cc(F)ccc1-n1c(=O)n(CC2CN(C(CCCN3CCN(CCO)CC3)C(C)C)C2)c2c(C)cncc21)C(C)C (centres unmarked) [Example 415, N-ethyl-5-fluoro-2-{1-[(1-{6-[4-(2-hydroxyethyl)piperazin-1-yl]-2-methylhexan-3-yl}azacyclobutan-3-yl)methyl]-7-methyl-2-oxo-1H,2H,3H-imidazo[4,5-c]pyridin-3-yl} N-(isopropyl)benzamide]",160
150,"CCN(C(=O)c1cc(F)ccc1-c1cc(C2CN([C@@H](CN3CCN(CCO)CC3)C(C)C)C2)cc2c1cnn2C)C(C)C [Example 416-1, N-ethyl-5-fluoro-2-(6-{1-[(2R)-1-[4-(2-hydroxyethyl)piperazin-1-yl]-3-methylbutan-2-yl]azacyclobutan-3-yl}-1-methyl-1H-indazol-4-yl)-N-(isopropyl)benzamide]",
62,CCN(C(=O)c1cc(F)ccc1-c1cc(C2CN([C@H](CN3CCN(C(C)=O)CC3)C(C)C)C2)cc2c1cnn2C)C(C)C [Example 417],
6.3,CCN1CCN(C[C@H](C(C)C)N2CC(c3cc(-c4ccc(F)cc4C(=O)N(CC)C(C)C)c4cnn(C)c4c3)C2)CC1 [Example 418],
14,"CCN(C(=O)c1cc(F)ccc1-c1cc(C2CN(C(CO)C(C)C)C2)cn2c(C)ncc12)C(C)C (centres unmarked) [Example 421, N-ethyl-5-fluoro-2-{6-[1-(1-hydroxyl-3-methylbutan-2-yl)azacyclobutan-3-yl]-3-methylimidazo[1,5-a]pyridin-8-yl}-N-(isopropyl)benzamide]",
29,CCN(C(=O)c1cc(F)ccc1-c1cc(C2CN([C@H](CN3CCN(CCOC)CC3)C(C)C)C2)cc2c1cnn2C)C(C)C [Example 422],
78,"CCN(C(=O)c1cc(F)ccc1-c1cc(C2CN([C@H](CN3CCN(CCF)CC3)C(C)C)C2)cc2c1cnn2C)C(C)C [Example 424, N-ethyl-5-fluoro-2-(6-{1-[(2S)-1-[4-(2-fluoroethyl)piperazin-1-yl]-3-methylbutan-2-yl]azacyclobutan-3-yl}-1-methyl-1H-indazol-4-yl)-N-(isopropyl)benzamide]",
120,"CCN(C(=O)c1cc(F)ccc1-c1cc(C2CN(C(CCC(=O)O)C(C)C)C2)cn2c(C)ncc12)C(C)C (centres unmarked) [Example 427, 4-[3-(8-{2-[ethyl(isopropyl)aminoformyl]-4-fluorophenyl}-3-methylimidazo[1,5-a]pyridin-6-yl)azacyclobutan-1-yl]-5-methylhexanoic acid]",
12,"CCN(C(=O)c1cc(F)ccc1-c1cc(C2CN(C(C[C@H](O)CO)C(C)C)C2)cn2c(C)ncc12)C(C)C (stereo partly drawn) [Example 437, 2-(6-{1-[(5S)-5,6-dihydroxyl-2-methylhexan-3-yl]azacyclobutan-3-yl}-3-methylimidazo[1,5-a]pyridin-8-yl)-N-ethyl-5-fluoro-N-(isopropyl)benzamide]",
14,"CCN(C(=O)c1cc(F)ccc1-c1cc(C2CN(C(C[C@@H](O)CO)C(C)C)C2)cn2c(C)ncc12)C(C)C (stereo partly drawn) [Example 438, 2-(6-{1-[(5R)-5,6-dihydroxyl-2-methylhexan-3-yl]azacyclobutan-3-yl}-3-methylimidazo[1,5-a]pyridin-8-yl)-N-ethyl-5-fluoro-N-(isopropyl)benzamide]",
21,"CCN(C(=O)c1cc(F)ccc1-c1cc(C2CN(C(CN3CCOCC3)C(C)C)C2)cn2c(C)ncc12)C(C)C (centres unmarked) [Example 439, N-ethyl-5-fluoro-2-(3-methyl-6-{1-[3-methyl-1-(morpholin-4-yl)butan-2-yl]azacyclobutan-3-yl}imidazo[1,5-a]pyridin-8-yl)-N-(isopropyl)benzamide]",
